Assay results reported in paper PMC11087444, “Multi-functionalization of reduced graphene oxide nanosheets for tumor theragnosis: Synthesis, characterization, enzyme assay, in-silico study, radiolabeling and in vivo targeting evaluation” (DARU Journal of Pharmaceutical Sciences, 2023).
pIC50: −log10 of the molar value.

Key:
[1] = test system: human breast cancer MDA-MB-436 cells; experiment: MTT cell proliferation assay, cytotoxicity of compounds 3 and 4a-c; format: cell-based; conditions: for pIC50: Homo sapiens, MTT, BRCA1 deficient MDA-MB-436 cells; for reduction in potency (cytotoxicity): MDA-MB-436, relative to Staurosporine
Method: The cytotoxicity assay was performed at Department of therapeutic chemistry/ National Research Center. cytotoxic activity of target compounds 3, 4a-c was determined via three independent experiments by 3-(4,5-dimethylthiazolyl-2)-2,5-diphenyltetrazolium bromide (MTT) cell proliferation assay against the cell proliferation of human breast cancer MDA-MB-436 cells carrying natural BRCA1 deficient [R].

PARP-1 = target: T1, PARP-1 (Homo sapiens, UniProt P09874); experiment: In vitro PARP inhibition assay (HT F Homogeneous PARP Inhibition Assay Kit); format: biochemical
T1 construct: purchased Trevigen 4690-096-K
Method: Olaparib was used as positive control. Fluorescence values under the condition of excitation wavelength (544 nm) and emission wavelength (590 nm) were measured using a multi-well spectrophotometer (Molecular Devices SpectraMax M5 microplate reader, Careforde, Chicago, USA). Then, the standard curve was drawn and the inhibition rate of each test compound was calculated. IC50 value of each compound was calculated using GraphPad Prism 6 software.

[2] = Biodistribution of radiolabeled complexes in normal mice; format: in vivo, Albino mice
[3] = test system: solid tumor (Ehrlich Ascites Carcinoma); experiment: Biodistribution and tumor targeting in solid tumor-bearing mice; format: in vivo, Swiss Albino mice
Method: To form a solid tumor, a 0.2 mL of Ehrlich Ascites Carcinoma fluid was administered intramuscularly in the right thigh of female Swiss Albino mice. The animals were well-cared until the tumors became obvious (7- 10 days). The parent tumor line (Ehrlich Ascites Carcinoma) was withdrawn from 7-day-old Swiss Albino donor females and diluted with sterile physiological saline solution to yield 12.5 x 10^6 cells/mL [52].
Biodistribution studies were performed by injecting the solid tumor-bearing mice intravenously with NGO-COOH nanosheets followed by injecting the radiolabeled complexes. The mice were divided into four groups (four mice per group) according to the designated time of dissection. Following the administration of the radiolabeled nanosheets, mice were dissected at 0.5, 1, 2, 4 h post injection (p.i). Blood, solid tumor, and major organs/tissues were collected and wet-weighed. The distribution of the radioactivity in each organ/ fluid was measured ex vivo, the radioactivity in each was detected by a gamma-counter (Perkin Elmer) as presented in Fig. 4. The results were expressed as mean percentage injected dose per gram (%ID/g ± SD).

T1 sequence (P09874 whole entry): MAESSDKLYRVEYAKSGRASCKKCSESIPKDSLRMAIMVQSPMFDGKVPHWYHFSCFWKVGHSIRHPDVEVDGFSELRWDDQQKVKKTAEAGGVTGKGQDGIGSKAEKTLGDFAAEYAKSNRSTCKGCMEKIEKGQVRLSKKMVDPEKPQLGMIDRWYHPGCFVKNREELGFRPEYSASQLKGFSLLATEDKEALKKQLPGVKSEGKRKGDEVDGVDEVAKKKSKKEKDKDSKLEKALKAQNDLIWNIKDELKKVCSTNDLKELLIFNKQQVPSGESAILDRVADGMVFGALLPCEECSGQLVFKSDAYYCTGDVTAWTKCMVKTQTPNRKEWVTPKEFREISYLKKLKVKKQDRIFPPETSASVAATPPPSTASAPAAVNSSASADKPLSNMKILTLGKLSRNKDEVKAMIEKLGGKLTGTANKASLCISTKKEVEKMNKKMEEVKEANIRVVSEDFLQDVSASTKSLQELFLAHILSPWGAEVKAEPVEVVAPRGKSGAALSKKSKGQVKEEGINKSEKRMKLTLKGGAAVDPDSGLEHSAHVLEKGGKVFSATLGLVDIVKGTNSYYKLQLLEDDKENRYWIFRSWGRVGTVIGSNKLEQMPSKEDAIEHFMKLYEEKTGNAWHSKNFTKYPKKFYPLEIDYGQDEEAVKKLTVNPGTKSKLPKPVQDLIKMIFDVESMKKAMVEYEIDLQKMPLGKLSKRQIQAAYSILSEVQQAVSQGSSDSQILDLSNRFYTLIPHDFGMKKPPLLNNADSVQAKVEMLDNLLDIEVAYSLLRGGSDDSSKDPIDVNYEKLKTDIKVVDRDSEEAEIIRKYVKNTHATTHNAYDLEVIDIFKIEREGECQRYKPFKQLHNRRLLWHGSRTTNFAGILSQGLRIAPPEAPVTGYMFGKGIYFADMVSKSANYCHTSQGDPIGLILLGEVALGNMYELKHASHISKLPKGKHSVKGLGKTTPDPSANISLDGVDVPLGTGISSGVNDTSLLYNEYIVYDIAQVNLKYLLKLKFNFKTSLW

NNS(=O)(=O)c1ccc2c(=O)[nH]c(=O)[nH]c2c1 [Compound 3, 2,4-dioxo-1,2,3,4-tetrahydroquinazoline-7-sulfonohydrazide]
melting point: 268 to 270 °C | pIC50 [1]: 8.22 | times more potent than Staurosporine (cytotoxicity) ([1]; MDA-MB-436, ratio of IC50): about 1.6 times | pIC50 (PARP-1): 6.58

Cc1ccc(NS(=O)(=O)c2ccc3c(=O)[nH]c(=O)[nH]c3c2)cc1 [Compound 4a, 2,4-Dioxo-N-(p-tolyl)-1,2,3,4-tetrahydroquinazoline-7-sulfonamide]
melting point: > 300 °C | pIC50 [1]: 7.30 | reduction in potency (cytotoxicity) [1]: 5 folds | pIC50 (PARP-1): 6.36

O=C(O)c1ccccc1NS(=O)(=O)c1ccc2c(=O)[nH]c(=O)[nH]c2c1 [Compound 4b, 2-(2,4-Dioxo-1,2,3,4-tetrahydroquinazoline-7-sulfonamido) benzoic acid]
melting point: 280 to 282 °C | pIC50 (PARP-1): 6.78

O=c1[nH]c(=O)c2ccc(S(=O)(=O)Nc3nccs3)cc2[nH]1 [Compound 4c, 2,4-dioxo-N-(thiazol-2-yl)-1,2,3,4-tetrahydroquinazoline-7-sulfonamide]
melting point: 265 to 267 °C | pIC50 [1]: 7.40 | reduction in potency (cytotoxicity) [1]: 4 folds | pIC50 (PARP-1): 6.82

[^99mTc]Tc-2,4-dioxo-1,2,3,4-tetrahydroquinazoline-7-sulfonohydrazide [^99mTc-3]
blood uptake ([2]; normal mice, i.v., 0.5 h p.i.): 10.5 ± 1.4 %ID/g | liver uptake ([2]; normal mice, i.v., 0.5 h p.i.): 11 ± 1.7 %ID/g | liver uptake ([2]; normal mice, i.v., 1 h p.i.): 12 ± 1.2 %ID/g | blood uptake ([2]; normal mice, i.v., 4 h p.i.): 3.2 ± 0.4 %ID/g | liver uptake ([2]; normal mice, i.v., 4 h p.i.): 8 ± 1.3 %ID/g | tumor uptake ([3]; solid tumor-bearing mice, i.v., 0.5 h p.i.): 5.0 ± 0.40 %ID/g | tumor uptake ([3]; solid tumor-bearing mice, i.v., 2 h p.i.): 6.5 ± 0.3 %ID/g | tumor uptake ([3]; solid tumor-bearing mice, i.v., 4 h p.i.): 6.0 ± 0.4 %ID/g

[^99mTc]Tc-NGO-COOH-2,4-dioxo-1,2,3,4-tetrahydroquinazoline-7-sulfonohydrazide [^99mTc-NGO-COOH-3]
blood uptake ([2]; mouse, in vivo, iv, 0.5 h): 5.0 ± 0.5 %ID/g | liver uptake ([2]; mouse, in vivo, iv, 0.5 h): 7.0 ± 0.7 %ID/g | blood uptake ([2]; mouse, in vivo, iv, 4 h): 1 ± 0.1 %ID/g | liver uptake ([2]; mouse, in vivo, iv, 4 h): 15.0 ± 1.5 %ID/g | target/nontarget (T/NT) ratio, tumor muscle to contralateral normal muscle ([3]; mouse, in vivo, iv): 9.0 | tumor uptake ([3]; mouse, in vivo, iv, 0.5 h): 7.0 ± 0.70 %ID/g | tumor uptake ([3]; mouse, in vivo, iv, 1 h): 12.0 ± 1.2 %ID/g
